According to US20150141381A1, “TETRACYCLINE COMPOUNDS HAVING TARGET THERAPEUTIC ACTIVITIES” (Paratek Pharmaceuticals, Inc., priority 2001, published 2015):

Key:
[1] = test system: S. aureus RN450; assay: In Vitro Anti-Bacterial Activity Assay (MIC), gram positive; type: cell-based; details: Staphylococcus aureus, RN450, 18 h, MIC class, Table 3; read-out: Antibiotic Activity Gram +
[2] = test system: E. coli mL308 225; assay: In Vitro Anti-Bacterial Activity Assay (MIC), gram negative; type: cell-based; details: Escherichia coli, ML308225, 18 h, MIC class, Table 3; read-out: Antibiotic Activity Gram −

SMILES	MIC [1]	MIC [2]
CCOc1ccc(-c2ccc(O)c3c2C[C@H]2C[C@H]4[C@H](N(C)C)C(O)=C(C(N)=O)C(=O)[C@@]4(O)C(O)=C2C3=O)cc1CN [GJ]	< 4 µg/mL	< 4 µg/mL
CCOC(=O)CNCc1ccc(-c2ccc(O)c3c2C[C@H]2C[C@H]4[C@@H](N(C)C)C(O)=C(C(N)=O)C(=O)[C@@]4(O)C(O)=C2C3=O)cc1 [GK]	< 4 µg/mL	> 4 µg/mL
CC(C)NCc1ccc(-c2ccc(O)c3c2C[C@H]2C[C@H]4C(N(C)C)C(O)=C(C(N)=O)C(=O)[C@@]4(O)C(O)=C2C3=O)cc1 (stereo partly drawn) [GL]	< 4 µg/mL	< 4 µg/mL
CN(C)c1cc(NC(=N)NCc2ccccc2)c(O)c2c1C[C@H]1C[C@H]3C(N(C)C)C(O)=C(C(N)=O)C(=O)[C@@]3(O)C(O)=C1C2=O (stereo partly drawn) [GM]	> 4 µg/mL	> 4 µg/mL
COc1ccc(C=O)cc1-c1ccc(O)c2c1C[C@H]1C[C@H]3[C@@H](N(C)C)C(O)=C(C(N)=O)C(=O)[C@@]3(O)C(O)=C1C2=O [GO]	< 4 µg/mL	> 4 µg/mL
CN1CCCC1=Nc1ccc(-c2ccc(O)c3c2C[C@H]2C[C@H]4[C@@H](N(C)C)C(O)=C(C(N)=O)C(=O)[C@@]4(O)C(O)=C2C3=O)cc1 [GP]	< 4 µg/mL	> 4 µg/mL
CN(C)[C@H]1C(O)=C(C(N)=O)C(=O)[C@@]2(O)C(O)=C3C(=O)c4c(O)ccc(-c5ccc(NC(=O)C6CC6)cc5)c4C[C@H]3C[C@@H]12 [GQ]	< 4 µg/mL	> 4 µg/mL
CCOC(=O)CNC(=O)c1cccc(-c2ccc(O)c3c2C[C@H]2C[C@H]4[C@H](N(C)C)C(O)=C(C(N)=O)C(=O)[C@@]4(O)C(O)=C2C3=O)c1 [GS]	< 4 µg/mL	> 4 µg/mL
CN(C)[C@H]1C(O)=C(C(N)=O)C(=O)[C@@]2(O)C(O)=C3C(=O)c4c(O)ccc(-c5ccc(NC(=O)C(C)(C)C)cc5)c4C[C@H]3C[C@@H]12 [GT]	< 4 µg/mL	> 4 µg/mL
CN(C)[C@H]1C(O)=C(C(N)=O)C(=O)[C@@]2(O)C(O)=C3C(=O)c4c(O)ccc(-c5ccc(/N=C\NC(C)(C)C)cc5)c4C[C@H]3C[C@@H]12 [GU]	< 4 µg/mL	< 4 µg/mL
CN(C)C1C(O)=C(C(N)=O)C(=O)[C@@]2(O)C(O)=C3C(=O)c4c(O)ccc(-c5ccc(NC(=O)Nc6ccc(OC(F)(F)F)cc6)cc5)c4C[C@H]3C[C@@H]12 (stereo partly drawn) [GV]	> 4 µg/mL	> 4 µg/mL
COc1ccc(CNCc2ccc(-c3ccc(O)c4c3C[C@H]3C[C@H]5[C@H](N(C)C)C(O)=C(C(N)=O)C(=O)[C@@]5(O)C(O)=C3C4=O)cc2)cc1 [GX]	< 4 µg/mL	< 4 µg/mL
CN(C)[C@@H]1C(O)=C(C(N)=O)C(=O)[C@@]2(O)C(O)=C3C(=O)c4c(O)ccc(-c5ccc(CN6CCCC6)o5)c4C[C@H]3C[C@@H]12 [GY]	< 4 µg/mL	< 4 µg/mL
COc1ccc(CN2CCCC2)cc1-c1ccc2c(c1O)C(=O)C1=C(O)[C@]3(O)C(=O)C(C(N)=O)=C(O)[C@@H](N(C)C)[C@@H]3[C@@H](O)[C@@H]1[C@H]2C [HC]	> 4 µg/mL	> 4 µg/mL
COC(=O)c1cc(N)cc(-c2ccc(O)c3c2C[C@H]2C[C@H]4[C@H](N(C)C)C(O)=C(C(N)=O)C(=O)[C@@]4(O)C(O)=C2C3=O)c1 [HE]	< 4 µg/mL	> 4 µg/mL
C[C@H]1c2c(-c3ccc4c(c3)OCO4)cc(-c3cccc4c3OCO4)c(O)c2C(=O)C2=C(O)[C@]3(O)C(=O)C(C(N)=O)=C(O)[C@@H](N(C)C)[C@@H]3[C@@H](O)[C@@H]21 [HF]	< 4 µg/mL	> 4 µg/mL
COCCOC(=O)Nc1ccc(-c2ccc(O)c3c2C[C@H]2C[C@H]4[C@H](N(C)C)C(O)=C(C(N)=O)C(=O)[C@@]4(O)C(O)=C2C3=O)cc1 [HH]	< 4 µg/mL	> 4 µg/mL

SMILES	MIC [1]	MIC [2]
COc1ccc(-c2ccc(O)c3c2C[C@H]2C[C@H]4[C@H](N(C)C)C(O)=C(C(N)=O)C(=O)[C@@]4(O)C(O)=C2C3=O)cc1CN [HI]	< 4 µg/mL	> 4 µg/mL
CN(C)C1C(O)=C(C(N)=O)C(=O)[C@@]2(O)C(O)=C3C(=O)c4c(O)c(CN)cc(-c5ccc(C(C)(C)C)cc5)c4C[C@H]3C[C@@H]12 (stereo partly drawn) [HJ]	< 4 µg/mL	< 4 µg/mL
CCOc1ccc(-c2ccc(O)c3c2C[C@H]2C[C@H]4C(N(C)C)C(O)=C(C(N)=O)C(=O)[C@@]4(O)C(O)=C2C3=O)cc1CNC(=O)NC(C)(C)C (stereo partly drawn) [HK]	< 4 µg/mL	> 4 µg/mL
CN(C)Cc1ccc(-c2ccc(O)c3c2C[C@H]2C[C@H]4[C@H](N(C)C)C(O)=C(C(N)=O)C(=O)[C@@]4(O)C(O)=C2C3=O)o1 [HL]	< 4 µg/mL	< 4 µg/mL
CN(C)[C@@H]1C(O)=C(C(N)=O)C(=O)[C@@]2(O)C(O)=C3C(=O)c4c(O)ccc(-c5ccc(CN6CCOCC6)o5)c4C[C@H]3C[C@@H]12 [HM]	< 4 µg/mL	< 4 µg/mL
CC(C)NCc1ccc(-c2ccc(O)c3c2C[C@H]2C[C@H]4[C@@H](N(C)C)C(O)=C(C(N)=O)C(=O)[C@@]4(O)C(O)=C2C3=O)o1 [HN]	< 4 µg/mL	< 4 µg/mL
COc1ccc(CNCc2cccc(C)c2)cc1-c1ccc(O)c2c1C[C@H]1C[C@H]3C(N(C)C)C(O)=C(C(N)=O)C(=O)[C@@]3(O)C(O)=C1C2=O (stereo partly drawn) [HO]	< 4 µg/mL	< 4 µg/mL
CN(C)[C@@H]1C(O)=C(C(N)=O)C(=O)[C@@]2(O)C(O)=C3C(=O)c4c(O)c(NC(=O)OCC(C)(C)C)cc(CN)c4C[C@H]3C[C@@H]12 [HP]	> 4 µg/mL	> 4 µg/mL
CN(C)c1ccc(-c2cc(CN)c(O)c3c2C[C@H]2C[C@H]4[C@@H](N(C)C)C(O)=C(C(N)=O)C(=O)[C@@]4(O)C(O)=C2C3=O)cc1 [HQ]	< 4 µg/mL	> 4 µg/mL
CN(C)c1ccc(-c2cc(C#CC3=CCCCC3)c(O)c3c2C[C@H]2C[C@H]4[C@H](N(C)C)C(O)=C(C(N)=O)C(=O)[C@@]4(O)C(O)=C2C3=O)cc1 [HR]	> 4 µg/mL	> 4 µg/mL
CCOc1ccc(-c2ccc(O)c3c2C[C@H]2C[C@H]4C(N(C)C)C(O)=C(C(N)=O)C(=O)[C@@]4(O)C(O)=C2C3=O)cc1CNC(=O)C(F)(F)F (stereo partly drawn) [HS]	< 4 µg/mL	> 4 µg/mL
COc1ccc(C(=O)Nc2ccc(-c3ccc(O)c4c3C[C@H]3C[C@H]5C(N(C)C)C(O)=C(C(N)=O)C(=O)[C@@]5(O)C(O)=C3C4=O)cc2)cc1 (stereo partly drawn) [HT]	< 4 µg/mL	> 4 µg/mL
CO/N=C/c1cc(-c2ccc(O)c3c2C[C@H]2C[C@H]4[C@H](N(C)C)C(O)=C(C(N)=O)C(=O)[C@@]4(O)C(O)=C2C3=O)ccc1OC [HV]	< 4 µg/mL	> 4 µg/mL
COc1ccc(-c2ccc(O)c3c2C[C@H]2C[C@H]4[C@H](N(C)C)C(O)=C(C(N)=O)C(=O)[C@@]4(O)C(O)=C2C3=O)cc1C=O [HW]	< 4 µg/mL	< 4 µg/mL
CN(C)[C@@H]1C(O)=C(C(N)=O)C(=O)[C@@]2(O)C(O)=C3C(=O)c4c(ccc(NC(=O)CCCC(=O)O)c4O)C[C@H]3C[C@@H]12 [HX]	> 4 µg/mL	> 4 µg/mL
CCc1cc(N(C)C)c2c(c1O)C(=O)C1=C(O)[C@]3(O)C(=O)C(C(N)=O)=C(O)C(N(C)C)[C@@H]3C[C@@H]1C2 (stereo partly drawn) [IA]	< 4 µg/mL	> 4 µg/mL
